“And” between values parts separate entries of the source, which are not always exact repeats. Identical values can stand only once.
Experiments:
[1] = system: experimental maliganancies; settings: background; cited from earlier work
[2] = system: Ridgeway Osteogenic Sarcoma (ROS); experiment: Transplanted tumor ROS in mice, percent inhibition of tumor growth or percent prolongation of survival time; type: in vivo
Procedure: (§1) The compounds of this invention are antimitotic agents being active in tissue culture and against transplanted tumors in mice.
(§2) The following table -- Table 1 -- gives the results of several experiments in which mice bearing transplanted tumors were treated successfully with a compound of this invention. The following abbreviations are employed: Compound A is 5'-acetonylvincristine sulfate; B and C are the corresponding dehydrated hemiketal sulfate and free base; D is 4-desacetyl-5'-acetonylvincristine; GLS is Gardner lymphosarcoma; ROS is Ridgeway Osteogenic Sarcoma and CA755 is an adenocarcinoma. In the table, column 1 gives the compound designation; column 2, the abbreviation of the name of transplanted tumor; column 3, the dose level and the number of days that dosage was administered; and column 4, the percent inhibition of tumor growth or percent prolongation of survival time

[3] = system: Gardner lymphosarcoma (GLS); experiment: Transplanted tumor GLS in mice, percent inhibition of tumor growth or percent prolongation of survival time; type: in vivo
Procedure: as §1, §2

[4] = system: CA755 (adenocarcinoma); experiment: Transplanted tumor CA755 in mice, percent inhibition of tumor growth or percent prolongation of survival time; type: in vivo
Procedure: as §1, §2

[5] = 0.05 mg/kg × 9 days, marked *: not statistically significantly different from control
[6] = 0.3 mg/kg × 7 days, marked *: not statistically significantly different from control

CCC1(O)CN2CCc3c([nH]c4ccccc34)C(C(=O)OC)(c3cc4c(cc3OC)N(C)C3C(O)(C(=O)OC)CC5(CC)C=CCN6CCC43C65)CC(C2)C1O (centres unmarked) [4-desacetoxy-3'-hydroxyvinblastine]
activity in the treatment of experimental malignancies in animals [1]: active

CC[C@]1(O)C[C@H]2CN(CCc3c([nH]c4ccccc34)[C@@](C(=O)OC)(c3cc4c(cc3OC)N(C)[C@@H]3[C@]45CCN4CC=C[C@@](CC)(C[C@]3(O)C(=O)OC)[C@H]45)C2)C1 [4-desacetoxyvinblastine]
activity in the treatment of experimental malignancies in animals [1]: active

CCC12CC3CN(CCc4c([nH]c5ccccc45)C(C(=O)OC)(c4cc5c(cc4OC)N(C=O)C4C(O)(C(=O)OC)C(OC(C)=O)C6(CC)C=CCN7CCC54C76)C3)C1C=C(C)O2.O=S(=O)(O)O (centres unmarked) [B, 2",3"-dehydro-5'-acetonylvincristine 1",2"-hemiketal]
percent inhibition of tumor growth or percent prolongation of survival time ([2]; 0.1 mg/kg × 10 days): 39% | percent inhibition of tumor growth or percent prolongation of survival time ([2]; 0.2 mg/kg × 10 days): 26% | percent inhibition of tumor growth or percent prolongation of survival time ([2]; 0.3 mg/kg × 10 days, marked *: not statistically significantly different from control): 14% | percent inhibition of tumor growth or percent prolongation of survival time ([2]; 0.5 mg/kg × 10 days, marked *: not statistically significantly different from control): 0% | percent inhibition of tumor growth or percent prolongation of survival time ([2]; 1.0 mg/kg × 10 days, marked *: not statistically significantly different from control): 0% | percent inhibition of tumor growth or percent prolongation of survival time [3, 5]: 13% | percent inhibition of tumor growth or percent prolongation of survival time ([3]; 0.1 mg/kg × 7 days): 0% | percent inhibition of tumor growth or percent prolongation of survival time ([3]; 0.1 mg/kg × 9 days, marked *: not statistically significantly different from control): 21% | percent inhibition of tumor growth or percent prolongation of survival time ([3]; 0.2 mg/kg × 7 days, marked *: not statistically significantly different from control): 21% | percent inhibition of tumor growth or percent prolongation of survival time ([3]; 0.2 mg/kg × 9 days, marked *: not statistically significantly different from control): 8% | percent inhibition of tumor growth or percent prolongation of survival time [3, 6]: 22% and 37% | percent inhibition of tumor growth or percent prolongation of survival time ([3]; 0.3 mg/kg × 9 days): 36% | percent inhibition of tumor growth or percent prolongation of survival time ([3]; 0.5 mg/kg × 7 days): 54% and 39% and 59% | percent inhibition of tumor growth or percent prolongation of survival time ([3]; 0.5 mg/kg × 9 days): 71% | percent inhibition of tumor growth or percent prolongation of survival time ([3]; 1.0 mg/kg × 7 days): 100% and 76% and 96% | percent inhibition of tumor growth or percent prolongation of survival time ([3]; 1.0 mg/kg × 9 days): 93% | percent inhibition of tumor growth or percent prolongation of survival time ([3]; 5.0 mg/kg × 7 days): 100%

CCC12CC3CN(CCc4c([nH]c5ccccc45)C(C(=O)OC)(c4cc5c(cc4OC)N(C=O)C4C(O)(C(=O)OC)C(OC(C)=O)C6(CC)C=CCN7CCC54C76)C3)C1C=C(C)O2 (centres unmarked) [C, 2",3"-dehydro-5'-acetonylvincristine 1",2"-hemiketal]
percent inhibition of tumor growth or percent prolongation of survival time ([3]; 0.5 mg/kg × 7 days): 57% | percent inhibition of tumor growth or percent prolongation of survival time ([3]; 0.5 mg/kg × 7 days, marked *: not statistically significantly different from control): 2% | percent inhibition of tumor growth or percent prolongation of survival time ([3]; 1.0 mg/kg × 7 days): 100% | percent inhibition of tumor growth or percent prolongation of survival time ([3]; 1.0 mg/kg × 7 days, marked *: not statistically significantly different from control): 5% | percent inhibition of tumor growth or percent prolongation of survival time ([3]; 5.0 mg/kg × 7 days): 100%

CCC1(O)CC2CN(CCc3c([nH]c4ccccc34)C(C(=O)OC)(c3cc4c(cc3OC)N(C=O)C3C(O)(C(=O)OC)C(OC(C)=O)C5(CC)C=CCN6CCC43C65)C2)C1CC(C)=O.O=S(=O)(O)O (centres unmarked) [Compound A, 5'-acetonylvincristine sulfate]
toxicity ([2]; 0.05 mg/kg × 10 days): TOXIC | percent inhibition of tumor growth or percent prolongation of survival time ([2]; 0.1 mg/kg × 10 days): 0% | percent inhibition of tumor growth or percent prolongation of survival time ([2]; 0.2 mg/kg × 10 days): 60% | percent inhibition of tumor growth or percent prolongation of survival time ([2]; 0.3 mg/kg × 10 days): 34% | toxicity ([2]; 0.5 mg/kg × 10 days): TOXIC | toxicity ([2]; 1.0 mg/kg × 10 days): TOXIC | percent inhibition of tumor growth or percent prolongation of survival time ([4]; 0 mg/kg × 8 days (so in the source)): 39% | percent inhibition of tumor growth or percent prolongation of survival time ([4]; 0.3 mg/kg × 8 days, marked *: not statistically significantly different from control): 21% | percent inhibition of tumor growth or percent prolongation of survival time ([4]; 0.5 mg/kg × 8 days): 39% | percent inhibition of tumor growth or percent prolongation of survival time ([4]; 5.0 mg/kg × 8 days): 34% | percent inhibition of tumor growth or percent prolongation of survival time [3, 5]: 8% | percent inhibition of tumor growth or percent prolongation of survival time ([3]; 0.3 mg/kg × 7-9 days): 39% | percent inhibition of tumor growth or percent prolongation of survival time ([3]; 0.3 mg/kg × 7-9 days, marked *: not statistically significantly different from control): 13% | percent inhibition of tumor growth or percent prolongation of survival time ([3]; 0.5 mg/kg × 7-9 days): 49% and 65% | percent inhibition of tumor growth or percent prolongation of survival time ([3]; 1.0 mg/kg × 7-9 days): 81% and 86%

CCC1(O)CC2CN(CCc3c([nH]c4ccccc34)C(C(=O)OC)(c3cc4c(cc3OC)N(C=O)C3C(O)(C(=O)OC)C(O)C5(CC)C=CCN6CCC43C65)C2)C1CC(C)=O (centres unmarked) [D, 4-desacetyl-5'-acetonylvincristine]
percent inhibition of tumor growth or percent prolongation of survival time [3, 6]: 0% | percent inhibition of tumor growth or percent prolongation of survival time ([3]; 0.5 mg/kg × 7 days): 37% and 26% | percent inhibition of tumor growth or percent prolongation of survival time ([3]; 1.0 mg/kg × 7 days): 100% and 62%

CC[C@]1(O)C[C@@H]2CN(CCc3c([nH]c4ccccc34)[C@@](C(=O)OC)(c3cc4c(cc3OC)N(C)[C@H]3[C@@](O)(C(=O)OC)[C@H](OC(C)=O)[C@]5(CC)C=CCN6CC[C@]43[C@@H]65)C2)C1 [VLB, vincaleukoblastine]
activity in the treatment of experimental malignancies in animals [1]: active

CCC1CC2CN(CCc3c([nH]c4ccccc34)C(C(=O)OC)(c3cc4c(cc3OC)N(C)C3C(O)(C(=O)OC)C(OC(C)=O)C5(CC)C=CCN6CCC43C65)C2)C1 (centres unmarked) [deoxy VLB "A"]
activity in the treatment of experimental malignancies in animals [1]: active

CCC1(O)CN2CCc3c([nH]c4ccccc34)C(C(=O)OC)(c3cc4c(cc3OC)N(C)C3C(O)(C(=O)OC)C(OC(C)=O)C5(CC)C=CCN6CCC43C65)CC(O)(C2)C1 (centres unmarked) [leurocolombine]
activity in the treatment of experimental malignancies in animals [1]: active

CC[C@]1(O)C[C@H]2CN(CCc3c([nH]c4ccccc34)[C@@](C(=O)OC)(c3cc4c(cc3OC)N(C=O)[C@H]3[C@@](O)(C(=O)OC)[C@H](OC(C)=O)[C@]5(CC)C=CCN6CC[C@]43[C@@H]65)C2)C1 [leurocristine]
activity in the treatment of experimental malignancies in animals [1]: active

CC[C@]12CN3CCc4c([nH]c5ccccc45)[C@@](C(=O)OC)(c4cc5c(cc4OC)N(C=O)[C@H]4[C@@](O)(C(=O)OC)[C@H](OC(C)=O)[C@]6(CC)C=CCN7CC[C@]54[C@@H]76)C[C@@H](C3)[C@H]1O2 [leuroformine, N-formylleurosine]
activity in the treatment of experimental malignancies in animals [1]: active

CC[C@@]1(O)C[C@@H]2CN(CCc3c([nH]c4ccccc34)[C@@](C(=O)OC)(c3cc4c(cc3OC)N(C)[C@H]3[C@@](O)(C(=O)OC)[C@H](OC(C)=O)[C@]5(CC)C=CCN6CC[C@]43[C@@H]65)C2)C1 [leurosidine]
activity in the treatment of experimental malignancies in animals [1]: active

CC[C@]12CN3CCc4c([nH]c5ccccc45)[C@@](C(=O)OC)(c4cc5c(cc4OC)N(C)[C@H]4[C@@](O)(C(=O)OC)[C@H](OC(C)=O)[C@]6(CC)C=CCN7CC[C@]54[C@@H]76)C[C@H](C3)[C@H]1O2 [leurosine]
activity in the treatment of experimental malignancies in animals [1]: active

CCC1(O)CN2CCc3c([nH]c4ccccc34)C(C(=O)OC)(c3cc4c(cc3OC)N(C)C3C(O)(C(=O)OC)C(OC(C)=O)C5(CC)C=CCN6CCC43C65)CC(C2)C1O (centres unmarked) [vincadioline]
activity in the treatment of experimental malignancies in animals [1]: active

From patent publication US4110330A, “5'-Acetonylvincristine and related compounds” (priority 1977, dated 1978)
